Data taken from patent publication US20220389009A1, “SUBSTITUTED 1,6-NAPHTHYRIDINE INHIBITORS OF CDK5” (Goldfinch Bio, Inc., priority 2019, published 2022).

Columns and labels:
CDK5/p25 = CDK5/p25 (Homo sapiens, UniProt Q00535); test: CDK5 mobility shift assay (enzymatic activity of CDK5/p25); assay type: biochemical; details: for IC50: 0.154 nM CDK5/p25, FL peptide 29, 60 min at room temperature, read-out: CDK5 IC50; for CDK5/CDK2 specificity: fold more active against CDK5 than CDK2
How it was run: (§1)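 Carna CDK5/p25 (0.154 nM) or CDK2/CycA2 (1.25 nM) was preincubated 30 min with compound, ATP ([…] for CDK5; 37 μM for CDK2) and 10 mM MgCl2 in HEPES pH 7.5. The reaction was started with 1.5 μM FL peptide (29 for CDK5, 18 for CDK2) and run 60 min (CDK5) or 120 min (CDK2) at room temperature. Product was read by mobility shift, with IC50 from a 4-parameter fit.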

CDK2/CycA2 = CDK2/CycA2 (Homo sapiens, UniProt P24941); test: CDK2 mobility shift assay (enzymatic activity of CDK2/CycA2); assay type: biochemical; details: 1.25 nM CDK2/CycA2, 37 μM ATP, FL Peptide 18, 120 min at room temperature; read-out: CDK2 IC50
How it was run: as §1

Chain of CDK5/p25 (Q00535 whole entry): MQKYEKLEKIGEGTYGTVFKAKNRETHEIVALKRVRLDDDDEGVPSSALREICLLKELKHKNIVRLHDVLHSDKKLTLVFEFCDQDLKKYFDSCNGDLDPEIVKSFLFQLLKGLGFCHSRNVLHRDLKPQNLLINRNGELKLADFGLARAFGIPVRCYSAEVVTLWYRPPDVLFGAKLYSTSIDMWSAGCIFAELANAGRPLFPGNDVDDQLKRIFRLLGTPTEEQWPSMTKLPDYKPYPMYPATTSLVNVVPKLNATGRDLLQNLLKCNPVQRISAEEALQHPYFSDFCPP
Chain of CDK5/p25 (Q15078 99-307 partner limits assumed): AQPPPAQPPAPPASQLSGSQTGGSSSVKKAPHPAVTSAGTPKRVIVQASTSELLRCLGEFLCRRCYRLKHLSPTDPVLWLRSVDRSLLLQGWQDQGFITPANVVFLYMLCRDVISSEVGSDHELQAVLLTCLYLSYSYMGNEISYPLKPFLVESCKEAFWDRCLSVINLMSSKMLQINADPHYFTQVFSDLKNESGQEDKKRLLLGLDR

Row | SMILES | IC50 (CDK5/p25) [nM] | IC50 (CDK2/CycA2) [nM] | CDK5/CDK2 specificity (CDK5/p25)
1 | COC(=O)CN(c1ccc2cnc(Nc3ccc(-n4ccc(CO)n4)cc3F)cc2n1)C1CCNCC1 [Compound 112, Methyl 2-[[7-([2-fluoro-4-[3-(hydroxymethyl)pyrazol-1-yl]phenyl]amino)-1,6-naphthyridin-2-yl](piperidin-4-yl)amino]acetate] | 100 to 1000 | > 1000 | ++ (greater than 10-fold and less than or equal to 100-fold more active against CDK5 than CDK2)
2 | Fc1cc(-n2cccn2)ccc1Nc1cc2nc(SC3CCNCC3)ccc2cn1 [Compound 107, N-[2-fluoro-4-(pyrazol-1-yl)phenyl]-2-(piperidin-4-ylsulfanyl)-1,6-naphthyridin-7-amine] | < 10 | 10 to 100 | ++ (greater than 10-fold and less than or equal to 100-fold more active against CDK5 than CDK2)
3 | OCc1ccn(-c2ccc(Nc3cc4nc(NC5CCNCC5)ccc4cn3)c(F)c2)n1 [Compound 102, [1-(3-fluoro-4-[[2-(piperidin-4-ylamino)-1,6-naphthyridin-7-yl]amino]phenyl)pyrazol-3-yl]methanol] | < 10 | 100 to 1000 | ++ (greater than 10-fold and less than or equal to 100-fold more active against CDK5 than CDK2)
4 | CN1CCC(S(=O)(=O)c2ccc3cnc(Nc4ccc(N5CCS(=O)(=O)CC5)cc4)cc3n2)CC1 [Compound 296] | < 10 | 10 to 100 | ++ (greater than 10-fold and less than or equal to 100-fold more active against CDK5 than CDK2)
5 | O=S(=O)(c1ccc2cnc(Nc3ccc(-n4ccc(CO)n4)cc3F)cc2n1)N1CCNCC1 [Compound 208, [1-(3-fluoro-4-[[2-(piperazine-1-sulfonyl)-1,6-naphthyridin-7-yl]amino]phenyl)pyrazol-3-yl]methanol] | 10 to 100 | 100 to 1000 | + (10-fold or less more active against CDK5 than CDK2)
6 | O=S(=O)(c1ccc2cnc(Nc3ccc(-n4cccn4)cc3F)cc2n1)C1CCN(CC2COC2)CC1 [Compound 332] | < 10 | 100 to 1000 | +++ (greater than 100-fold more active against CDK5 than CDK2)
7 | CN1CCC(S(=O)(=O)c2ccc3cnc(Nc4cccc(N5CCN(C)CC5)c4)cc3n2)CC1 [Compound 277] | < 10 | 100 to 1000 | ++ (greater than 10-fold and less than or equal to 100-fold more active against CDK5 than CDK2)
8 | CN1CCC(N(Cc2cn[nH]c2)c2ccc3cnc(Nc4ccc(-n5ccc(CO)n5)cc4F)cc3n2)CC1 [Compound 309, [1-[3-fluoro-4-([2-[(1-methylpiperidin-4-yl) (1H-pyrazol-4-ylmethyl)amino]-1,6-naphthyridin-7-yl]amino)phenyl]pyrazol-3-yl]methanol] | 10 to 100 | > 1000 | ++ (greater than 10-fold and less than or equal to 100-fold more active against CDK5 than CDK2)
9 | CN(C)Cc1cccc(Nc2cc3nc(S(=O)(=O)C4CCN(C)CC4)ccc3cn2)c1 [Compound 280] | 10 to 100 | 100 to 1000 | + (10-fold or less more active against CDK5 than CDK2)
10 | CC(c1ccc2cnc(Nc3ccc(-c4noc(=O)[nH]4)cc3F)cc2n1)C1CCN(C)CC1 (racemic) [Compound 368] | < 10 | 100 to 1000 | ++ (greater than 10-fold and less than or equal to 100-fold more active against CDK5 than CDK2)

Continued, in another order:

Row | IC50 (CDK5/p25) [nM] | IC50 (CDK2/CycA2) [nM] | SMILES | CDK5/CDK2 specificity (CDK5/p25)
11 | < 10 | 100 to 1000 | Cc1ccc(Nc2cc3nc(S(=O)(=O)C4CCN(C)CC4)ccc3cn2)c(F)c1 [Compound 294] | +++ (greater than 100-fold more active against CDK5 than CDK2)
12 | 10 to 100 | > 1000 | CN1CCC(C(C)(F)c2ccc3cnc(Nc4ccc(-n5cccn5)cc4F)cc3n2)CC1 (single isomer, unassigned) [Compound 363, 2-[1-fluoro-1-(1-methylpiperidin-4-yl)ethyl]-N-[2-fluoro-4-(pyrazol-1-yl)phenyl]-1,6-naphthyridin-7-amine] | ++ (greater than 10-fold and less than or equal to 100-fold more active against CDK5 than CDK2)
13 | < 10 | 10 to 100 | CN1CCC(Sc2ccc3cnc(Nc4ccc(-n5ccc(CO)n5)cc4F)cc3n2)CC1 [Compound 127, [1-[3-fluoro-4-([2-[(1-methylpiperidin-4-yl)sulfanyl]-1,6-naphthyridin-7-yl]amino)phenyl]pyrazol-3-yl]methanol] | +++ (greater than 100-fold more active against CDK5 than CDK2)
14 | < 10 | 10 to 100 | CN1CCC(C(C)(O)c2ccc3cnc(Nc4ccc(-c5ccc(=O)n(C)c5)cc4F)cc3n2)CC1 (stereo not drawn) [Compound 351] | ++ (greater than 10-fold and less than or equal to 100-fold more active against CDK5 than CDK2)
15 | 10 to 100 | 100 to 1000 | CN1CCC(C2(c3ccc4cnc(Nc5ccc(-n6cccn6)cc5F)cc4n3)CCO2)CC1 (stereo not drawn) [Compound 365, N-(2-fluoro-4-(1H-pyrazol-1-yl)phenyl)-2-(2-(1-methylpiperidin-4-yl)oxetan-2-yl)-1,6-naphthyridin-7-amine] | ++ (greater than 10-fold and less than or equal to 100-fold more active against CDK5 than CDK2)
16 | 100 to 1000 | 100 to 1000 | CN1CCC(S(=O)(=O)c2ccc3cnc(Nc4ccc(-c5ncon5)cc4F)cc3n2)CC1 [Compound 376] | + (10-fold or less more active against CDK5 than CDK2)
17 | < 10 | 10 to 100 | CN1CCC(C(F)(F)c2ccc3cnc(Nc4ccc(-n5cccn5)cc4F)cc3n2)CC1 [Compound 291, 2-[difluoro(1-methylpiperidin-4-yl)methyl]-N-[2-fluoro-4-(pyrazol-1-yl)phenyl]-1,6-naphthyridin-7-amine] | ++ (greater than 10-fold and less than or equal to 100-fold more active against CDK5 than CDK2)
18 | 10 to 100 | 100 to 1000 | CN1CCC(NS(=O)(=O)c2ccc3cnc(Nc4ccc(-n5ccc(CO)n5)cc4F)cc3n2)C1 (stereo not drawn) [Compound 248] | + (10-fold or less more active against CDK5 than CDK2)
19 | < 10 | > 1000 | COC(=O)c1cnn(-c2ccc(Nc3cc4nc(S(=O)(=O)C5CCN(C)CC5)ccc4cn3)c(F)c2)c1 [Compound 288] | +++ (greater than 100-fold more active against CDK5 than CDK2)
20 | < 10 | 100 to 1000 | COc1ccc(-c2ccc(Nc3cc4nc(C(C)C5CCN(C)CC5)ccc4cn3)c(F)c2)cc1 (stereo not drawn) [Compound 322] | +++ (greater than 100-fold more active against CDK5 than CDK2)
21 | < 10 | 10 to 100 | COC(=O)c1cnn(-c2ccc(Nc3cc4nc([C@](C)(O)C5CCN(C)CC5)ccc4cn3)c(F)c2)c1 [Compound 367, methyl 1-[3-fluoro-4-([2-[(1R)-1-hydroxy-1-(1-methylpiperidin-4-yl)ethyl]-1,6-naphthyridin-7-yl]amino)phenyl]pyrazole-4-carboxylate] | ++ (greater than 10-fold and less than or equal to 100-fold more active against CDK5 than CDK2)
